Assay results from the METLIN SMRT retention time set (Domingo-Almenara et al. 2019).

Assay: gradient 5% acetonitrile 3 min, to 50% in 2 min, to 85% in 15 min, held 3 min, 100 µL/min
Conditions: column: Zorbax Extend-C18 2.1 x 50 mm; eluents: water / acetonitrile, 0.1% formic acid
Outline: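 Retention times come from adduct peaks that were picked computationally and then checked by hand. The standards, pure and pooled in mixtures of ~100 molecules, were run on a Zorbax Extend-C18 column (2.1 × 50 mm, 1.8 μm) at 100 μL/min with water and acetonitrile, each with 0.1% formic acid. Detection was by quadrupole time-of-flight mass spectrometry in positive and negative ionization mode, with a dead volume of 40 μL and a dwell volume of 900 μL.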

| RP-LC retention time | SMILES |
| --- | --- |
| 1100 s | CC1CCN(S(=O)(=O)c2cc(C(=O)N3CCN(c4ccc(Cl)cc4)CC3)n(C)c2)CC1 |
| 723 s | O=C1c2ccccc2NC(c2cc(Cl)cc(Cl)c2O)N1CCc1ccccn1 (stereo unspecified) |
| 691 s | Cc1oc(C2CCN(C(=O)Nc3ccccc3Cl)CC2)nc1C(=O)N(C)C |
| 657 s | NNC(=O)c1nnsc1-c1csnn1 |
| 888 s | COc1ccc(-c2noc(-c3nc(C)no3)n2)cc1OC |
| 661 s | O=C(Nc1ccc(Cn2cncn2)cc1)c1cccs1 |
| 884 s | COc1ccc(C)cc1NC(=O)N1CCC2(CC1)NC(=O)c1ccc(Cl)cc1N2C |
| 1260 s | Cc1ccc(-c2noc(-c3ccc(=O)n(Cc4cc(C)ccc4C)c3)n2)cc1 |
| 617 s | O=C(C1CCCCC1)N1CCN(c2nc(CN3CCOCC3)cs2)CC1 |
| 620 s | COc1ccc(CN2CCCN(c3cc(-c4ccccc4)[nH]n3)CC2)c(O)c1 |
| 754 s | CCOC(=O)Cc1csc(NC(=O)c2cc(=O)c3ccccc3o2)n1 |
| 853 s | O=c1ccc(N2CCCN(S(=O)(=O)c3cc(F)ccc3F)CC2)nn1-c1ccccc1 |
| 848 s | CCS(=O)(=O)N1CC(=O)N(c2ccc(Cl)cc2)C(C)(C(=O)NCc2ccccc2)C1 (stereo unspecified) |
| 959 s | Cc1cccc(N2CCN(C(=O)Cn3ccc4ccc(N5CCOCC5)nc43)CC2)c1 |
| 846 s | CC1CCN(C(=O)Cn2nc(C(=O)N3CCCC3)c3ccccc32)CC1 |
| 1110 s | O=C(CSc1nccnc1N1CCN(c2ccccc2)CC1)Nc1ccc(F)cc1F |
| 1140 s | O=C(Nc1ccc(Br)cc1)Nc1ccccc1Cl |
| 611 s | Cc1ccc(N2CC(c3noc(-c4cccn4C)n3)CC2=O)cc1 (stereo unspecified) |
| 1100 s | O=C(Nc1ccc(Cl)c(Cl)c1)Nc1ccc([N+](=O)[O-])cn1 |
| 566 s | CCc1nccn1Cc1noc(-c2ccco2)n1 |
| 595 s | O=C(NCCCN1CCOCC1)c1ccc2ccnc(N3CCN(c4ccccc4F)CC3)c2c1 |
| 778 s | COc1cc(NC(=O)Cc2c(C(=O)O)c(C)cn2C)cc(OC)c1 |
| 906 s | Cc1nc(-c2ccc3c(c2)CCN3C(=O)c2cccc(C#N)c2)cs1 |

| RP-LC retention time | SMILES |
| --- | --- |
| 784 s | COc1ccccc1N1CCN(CCn2c(=O)c3c(c4ccccc4n3C)n(C)c2=O)CC1 |
| 1060 s | O=C(Nc1nc(-c2cccc([N+](=O)[O-])c2)cs1)c1ccc(Cl)cc1Cl |
| 700 s | COc1cccc(N2CCN(C(=O)c3cc4c(=O)n(C)ccc4n3C)CC2)c1 |
| 705 s | CC(C)Oc1ccc(CN2CCC(C)(c3noc(C4CCOCC4)n3)CC2)cc1 |
| 766 s | O=C(Cc1ccsc1)NCCC1CCN(C(=O)Nc2ccc(F)cc2F)CC1 |
| 653 s | O=C(c1ccc2nccnc2c1)N1CCC(c2nnc(C(F)(F)F)o2)CC1 |
| 775 s | O=C(C1=CN(c2ccc(F)c(Cl)c2)c2cc(F)ccc2S1(=O)=O)N1CCOCC1 |
| 597 s | CCN(CC)CCNC(=O)c1ccnc(-c2cccs2)c1 |
| 669 s | Cc1ccc(S(=O)(=O)N2CCN(C(=O)c3ccccc3Cl)CC2)cc1C |
| 821 s | Cc1nc(N2CCN(c3ccccn3)CC2)c2c(C)c(C(=O)Nc3ccc(C)c(Cl)c3)sc2n1 |
| 821 s | CC(=O)c1cccc(NC(=O)Cn2cc3c(n2)CCCCC3)c1 |
| 937 s | O=C(Nc1ccccc1F)N1CCCC1c1nc(-c2ccc(F)cc2F)no1 (stereo unspecified) |
| 592 s | Cc1noc(CNC(=O)c2cc(C)on2)n1 |
| 572 s | COc1cccc(CN2CCC3(CC2)CC(O)CCO3)n1 (stereo unspecified) |
| 717 s | COc1ccc(-c2cc3nn(CC(=O)N4CCOCC4)c(=O)n3c(C)n2)cc1 |
| 679 s | Cc1ccc(S(=O)(=O)c2cnc(N3CCN(Cc4ccc5c(c4)OCO5)CC3)nc2N)cc1 |
| 682 s | COc1cc(NC(=O)N2CCCC(Cn3cnc4cccnc43)C2)cc(OC)c1 (stereo unspecified) |
| 609 s | CCCN1CCN(CCCNC(=O)c2c(-c3ccc(Br)s3)noc2C)CC1 |
| 795 s | CCOC(=O)c1c(S(=O)(=O)N2CCC(C(=O)NCc3ccccc3)CC2)c(C)n(C)c1C |
| 805 s | CCCNC(=O)N1c2ccccc2NC2=C(C(=O)CC(c3ccco3)C2)C1c1ccc(OC)cc1 (stereo unspecified) |
| 616 s | CNC(=O)c1ccsc1NC(=O)c1cn(C)nc1OC |
| 584 s | CCOC(=O)c1nc(NCCN2CCOCC2)c2ccccc2n1 |
| 1180 s | Cc1cc(C)c(NC(=O)Cn2nc(N3CCCC(C)C3)c3ccccc3c2=O)c(C)c1 (stereo unspecified) |

| RP-LC retention time | SMILES |
| --- | --- |
| 610 s | CCCN1CCN(C(=O)C2Cc3cc(S(=O)(=O)N(CC)CC)ccc3N2C(C)=O)CC1 (stereo unspecified) |
| 872 s | CCOC(=O)c1cc(C)nc2c1c(=O)n(Cc1ccccc1C)c(=O)n2C |
| 682 s | Cc1ccc(Cl)cc1NC(=O)N1CCC(n2cnc3cccnc32)CC1 |
| 717 s | CC(C)CNC(=O)CN1CCN(Cc2ccccc2)C1=O |
| 655 s | c1cc(N2CCSCC2)ncc1-c1noc(CN2CCN(C3CCCCC3)CC2)n1 |
| 1260 s | CCCN1C(=O)COc2ccc(-c3noc(-c4ccc(Cl)cc4OC)n3)cc21 |
| 798 s | COCCn1cc(CCNC(=O)Nc2cccc(Cl)c2F)c2cccnc21 |
| 915 s | CCOc1ccc(N2CCn3c2nn(Cc2cccc(C(F)(F)F)c2)c(=O)c3=O)cc1 |
| 1250 s | CCOC(=O)Cc1c(C)nc2c(-c3cccc(Br)c3)cnn2c1C |
| 824 s | Cc1nc(-c2ccccc2)sc1C(=O)N1CCCC1 |
| 588 s | CS(=O)(=O)NCCc1ccc(CC2CCNCC2)cc1 |
| 744 s | CCN1c2ccc(C)cc2C(=O)NC12CCN(C(=O)c1ccc(OC)c(OC)c1)CC2 |
| 813 s | CC(C)c1c(C2CCN(C(=O)C3(c4ccccc4)CC3)CC2)noc1N |
| 915 s | Cn1cccc1CN(C(=O)c1ccc(F)cc1Cl)C1CC1 |
| 821 s | Cc1ccc(-c2cc(C(=O)O)c3ccccc3n2)c(C)c1 |
| 653 s | O=C(c1ccc(F)c(F)c1)N1CCCC1c1nc(-c2ccccc2)no1 (stereo unspecified) |
| 566 s | CN(C)S(=O)(=O)c1ccc(C(=O)Oc2coc(CSc3nccn3C)cc2=O)cc1 |
| 900 s | O=C1c2ccccc2S(=O)(=O)N1CC(O)COc1ccc(Cl)cc1Cl (stereo unspecified) |
| 669 s | CCNc1cc(N2CCCC(CCC(=O)Nc3ccccc3)C2)ncn1 (stereo unspecified) |
| 578 s | CCOC(=O)C1C(=O)NC(N2CCN(Cc3ccccc3)CC2)=NC1c1ccco1 (stereo unspecified) |
| 798 s | Cc1ccc(C(=O)NC2CCN(c3cc(-c4cccs4)[nH]n3)C2)cc1F (stereo unspecified) |
| 681 s | CN1C(=O)c2cccn2CC1C(=O)NC1CCCCC1 (stereo unspecified) |
| 1080 s | Cc1ccccc1NC(=O)C(=O)Nc1ccccc1C |

| RP-LC retention time | SMILES |
| --- | --- |
| 622 s | CCOCC(=O)N1CC(c2nc(-c3cccnc3)no2)C2(CCOCC2)C1 (stereo unspecified) |
| 891 s | CCCS(=O)(=O)N1CCCN(C2=NS(=O)(=O)C(c3cccc(Cl)c3)=C2C)CC1 |
| 1020 s | Cc1sc2ncnc(N3CCCCC3)c2c1C(=O)NCc1cc(F)ccc1F |
| 656 s | CCOC(=O)c1ccc(NC(=O)CSc2ccc3nnc(-c4ccccn4)n3n2)cc1 |
| 826 s | CC(C)NC(=O)c1ccc(OCC2CCN(C(=O)c3ccc(F)cc3)CC2)cc1 |
| 617 s | COCCNC(=O)C1CCN(c2ncnc3c2oc2ccccc23)CC1 |
| 551 s | O=C(NCCc1ccncc1)C1CN(C(=O)c2ccncc2)CC12CCCCC2 (stereo unspecified) |
| 916 s | Cc1ccc(CNC(=O)CN2C(=O)CCc3cc(S(=O)(=O)N4CCCCC4C)ccc32)cc1 (stereo unspecified) |
| 924 s | Cc1ccc(NC(=O)N2CCCC(C)(C(=O)NCc3ccccc3)C2)c(C)c1 (stereo unspecified) |
| 557 s | CCOC(=O)c1ccc(CNC(=O)N2CCC(c3nc4ccncc4n3C)C2)cc1 (stereo unspecified) |
| 575 s | CC1CCN(C(=O)c2cc3c(s2)CCC(C(=O)N2CCN(C)CC2)C3)CC1 (stereo unspecified) |
| 942 s | Cc1cc2c(c(=O)n(-c3ccc(F)cc3)c(=O)n2CC(=O)Nc2ccc(C(F)(F)F)cc2)n1C |
| 797 s | CCc1ccccc1NC(=O)N1CCC2(CC1)NC(=O)c1ccccc1N2CC |
| 944 s | Cn1cc(C(=O)NCCCc2ccccc2)c(S(=O)(=O)N2CCSCC2)n1 |
| 890 s | COc1ccc(-c2cn3c(CC(=O)N(Cc4ccco4)C4CCCCC4)csc3n2)cc1OC |
| 692 s | Cc1csc(NC(=O)CSc2nnc(NC(=O)c3cc(C)on3)s2)n1 |
| 1100 s | COc1ccc(-c2nc(-c3cn(-c4cccc(Cl)c4)nn3)no2)cc1 |
| 846 s | O=C(Cn1cc(S(=O)(=O)N2CCCCC2)ccc1=O)N1CCCc2ccccc21 |
| 748 s | CC(C)CNC(=O)CN1CCN(Cc2cccc(Cl)c2)C1=O |
| 943 s | CCCN(CCC)C(=O)C1CCC(=O)N1S(=O)(=O)c1ccc(C)cc1 (stereo unspecified) |

| SMILES | RP-LC retention time |
| --- | --- |
| COc1ccc2c(c1)C1(CCN(C(=O)c3ccc(C#N)cc3)C1)C(=O)N2 (stereo unspecified) | 762 s |
| C[C@@H](Cc1ccc(OCC(=O)O)cc1)NC[C@@H](O)c1cccc(Cl)c1 | 704 s |
